# Assays:
# [1] = organism: Rattus norvegicus; assay: Minimal effective dose in an rat anti-immobility effect using behavioral despair test; type: functional; conditions: read-out: MED
# [2] = molecular target: T1, Adenosine receptor A1 (Rattus norvegicus, UniProt P25099); assay: Binding affinity towards the adenosine A1 receptor in cerebral cortices of Sprague-Dawley male rats using [3H]CHA as radioligand.
# T1 sequence (P25099 whole entry): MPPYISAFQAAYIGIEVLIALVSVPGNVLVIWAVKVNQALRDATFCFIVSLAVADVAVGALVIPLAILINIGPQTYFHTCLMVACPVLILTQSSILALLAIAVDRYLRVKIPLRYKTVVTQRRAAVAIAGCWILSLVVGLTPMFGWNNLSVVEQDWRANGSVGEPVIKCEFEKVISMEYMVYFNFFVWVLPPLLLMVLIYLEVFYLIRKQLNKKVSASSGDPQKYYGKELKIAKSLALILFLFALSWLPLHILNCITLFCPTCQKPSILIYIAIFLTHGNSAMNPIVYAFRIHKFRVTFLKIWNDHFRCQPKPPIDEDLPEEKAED
# [3] = molecular target: Adenosine A2 receptor (Rattus norvegicus, UniProt P29276+P30543)
SMILES,minimal effective dose [1] [mg/kg],IC50 [2] [nM],IC50 [3] [nM]
CCN(CC)c1nc2ccc(Cl)cc2n2c(-c3ccccc3)nnc12,> 32,–,–
CCc1nnc2c(N(CC)CC)nc3ccc(F)cc3n12,10,–,–
CC(C)Nc1nc2cc(Cl)c(Cl)cc2n2cnnc12,3.2,1000,–
CCc1nnc2c(NC(C)=O)nc3cc(Cl)c(Cl)cc3n12,≤ 3.2,1300,–
CCc1nnc2c(N(CC)CC)nc3cc(Cl)c(Cl)cc3n12,3.2,100000,–
CCc1nnc2c(N(C)C)nc3cc(Cl)c(Cl)cc3n12,3.2,–,–
c1ccc2c(c1)nc(N1CCCC1)c1nncn12,> 32,50000,–
CCc1nnc2c(NC(C)C)nc3cc(Cl)c(Cl)cc3n12,≤ 32,110,3200
CC(=O)N(C(C)=O)c1nc2ccccc2n2cnnc12,≤ 32,–,–
Nc1nc2cc(F)ccc2n2cnnc12,≤ 32,6100,560
CC(=O)Nc1nc2ccc(F)cc2n2c(C(F)(F)F)nnc12,≤ 3.2,3600,–
CCc1nnc2c(N)nc3cc(OC)ccc3n12,> 32,140,36
CC(=O)N(c1nc2ccc(Cl)cc2n2cnnc12)C(C)C,≤ 32,–,–
CCN(CC)c1nc2ccccc2n2c(C(C)C)nnc12,≤ 32,19000,–
CCNc1nc2ccc(Cl)cc2n2c(CC)nnc12,3.2,–,–
CCN(CC)c1nc2ccccc2n2c(C(F)(F)F)nnc12,≤ 32,–,–
CCc1nnc2c(NC(=O)C(C)(C)C)nc3ccc(Cl)cc3n12,≤ 32,–,–
CCc1nnc2c(N3CCOCC3)nc3ccccc3n12,> 10,28000,–
CCc1nnc2c(NC(C)=O)nc3cc(Cl)ccc3n12,3.2,–,–
CC(C)Nc1nc2ccc(Cl)cc2n2cnnc12,3.2,370,3300
Nc1nc2cc(Cl)c(Cl)cc2n2cnnc12,> 32,–,–
CCNc1nc2ccc(F)cc2n2cnnc12,3.2,3200,17000
CCc1nnc2c(N(CC)C(C)=O)nc3ccccc3n12,≤ 32,–,–
COc1nnc2c(NC(C)C)nc3ccc(F)cc3n12,≤ 32,160,6500
CCc1nnc2c(NC(C)=O)nc3cc(OC)ccc3n12,> 32,–,–

SMILES,minimal effective dose [1] [mg/kg],IC50 [2] [nM],IC50 [3] [nM]
CC(C)Nc1nc2cc(F)c(F)cc2n2cnnc12,≤ 3.2,1900,–
CCC(=O)Nc1nc2ccc(Cl)cc2n2c(CC)nnc12,≤ 3.2,–,–
CC(C)Nc1nc2ccc(F)cc2n2c(O)nnc12,> 32,730,3500
CCN(CC)c1nc2ccccc2n2c(-c3ccccc3)nnc12,1,–,–
Oc1cccc(C2=CSC3=Nc4ccccc4CN23)c1,–,18000,530
CCc1nnc2c(N(CC)CC)nc3cc(F)c(F)cc3n12,3.2,–,–
Nc1nc2ccccc2n2cnnc12,3.2,4600,400
CCc1nnc2c(NC3CCCCC3)nc3ccc(Cl)cc3n12,> 32,44,4100
CCc1nnc2c(NC(C)C)nc3cc(F)c(F)cc3n12,≤ 32,280,6400
CC(=O)N(c1nc2cc(Cl)c(Cl)cc2n2cnnc12)C(C)C,> 32,–,–
CCc1nnc2c(NC(C)=O)nc3cc(F)ccc3n12,≤ 3.2,–,–
Cc1nnc2c(N)nc3ccc(Cl)cc3n12,≤ 32,350,–
CN1CCN(c2nc3ccccc3n3cnnc23)CC1,> 32,> 100000,–
CCNc1nc2ccc(Cl)cc2n2c(-c3ccccc3)nnc12,> 32,–,–
CC(=O)Nc1nc2cc(F)ccc2n2cnnc12,≤ 32,–,–
CCc1nnc2c(N(C)C)nc3cc(Cl)ccc3n12,10,–,–
Nc1nc2ccc(Cl)cc2c2nc(-c3ccco3)nn12 [CGS-15943],< 32,–,2.8
COc1ccc2c(c1)nc(NC(C)=O)c1nncn12,≤ 32,–,–
CC(N)Cc1ccccc1.O=S(=O)(O)O (centres undefined) [AMPHETAMINE SULFATE],< 1,–,–
CCN(CC)c1nc2cc(F)c(F)cc2n2cnnc12,3.2,5000,–
CC(C)Nc1nc2ccccc2n2c(C(F)(F)F)nnc12,< 10,170,4100
CCN(CC)c1nc2cc(Cl)ccc2n2cnnc12,32,–,–
COc1nnc2c(NC(C)C)nc3ccc(Cl)cc3n12,≤ 32,–,–
CC(CO)Nc1nc2ccc(F)cc2n2cnnc12 (centres undefined),> 32,–,–
